This is an account of results in PMC7004140, “In vitro hepatotoxicity of Petasites hybridus extract (Ze 339) depends on the concentration, the cytochrome activity of the cell system, and the species used” (Phytotherapy Research, 2019).

What all share (assay type): in vitro ADME
Common to all, as to conditions: petasins 20 μM, 60 min

One data set concerns the target T1, CYP3A2 (rat) (Rattus norvegicus, UniProt P05183).
T1 construct: purchased BD Gentest (Switzerland); host or cells: baculovirus expression system
T1 sequence (P05183 1-504): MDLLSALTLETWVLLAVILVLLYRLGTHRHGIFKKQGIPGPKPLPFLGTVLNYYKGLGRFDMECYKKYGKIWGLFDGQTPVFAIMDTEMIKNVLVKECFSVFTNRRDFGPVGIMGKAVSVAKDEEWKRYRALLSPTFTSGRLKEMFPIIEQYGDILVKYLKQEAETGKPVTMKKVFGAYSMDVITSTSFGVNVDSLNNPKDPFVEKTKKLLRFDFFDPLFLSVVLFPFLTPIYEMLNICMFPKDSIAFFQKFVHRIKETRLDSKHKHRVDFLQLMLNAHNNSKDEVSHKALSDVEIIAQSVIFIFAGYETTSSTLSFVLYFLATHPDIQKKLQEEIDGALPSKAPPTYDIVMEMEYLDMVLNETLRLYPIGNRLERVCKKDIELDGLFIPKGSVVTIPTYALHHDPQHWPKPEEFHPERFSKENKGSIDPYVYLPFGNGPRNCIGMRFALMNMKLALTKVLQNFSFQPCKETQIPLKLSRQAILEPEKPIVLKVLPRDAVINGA
In words: Metabolism by isolated rat CYP3A2. The text has this:
(§1) The metabolism of petasin, isopetasin, and neopetasin was investigated using three different S9 fractions originating from three different species (isolated from rat, dog, and human liver homogenates containing cytochrome P450 isoforms) and isolated cytochromes of two different species (human and rat; rat analogues of the respective human cytochromes were used). For the expression of the different cytochromes, a baculovirus expression system was used according to supplier's manual. The S9 fractions or respectively single P450 cytochromes were used to mimic the liver metabolism by in vitro incubation.
(§2) The assay was carried out in triplicate in 1.5 ml glass vials with a final concentration of 20 μM of petasin, isopetasin, and neopetasin. The incubation was performed in a 37°C warm water bath. S9 fractions were thawed slowly on ice. […]
(§3) A mixture of NADPH regeneration systems A (20‐fold) and B (100‐fold), phosphate buffer, and H2O was added, preincubated at 37°C, and shaken gently for 5 min. […] The supernatant was transferred to high‐performance liquid chromatography vials and analyzed by ultra‐performance liquid chromatography mass spectrometry (UPLC/MS). […]

In another data set the target is T2, CYP1A2 (human) (Homo sapiens, UniProt P05177).
T2 construct: purchased BD Gentest (Switzerland); host or cells: baculovirus expression system
T2 sequence (P05177 1-516): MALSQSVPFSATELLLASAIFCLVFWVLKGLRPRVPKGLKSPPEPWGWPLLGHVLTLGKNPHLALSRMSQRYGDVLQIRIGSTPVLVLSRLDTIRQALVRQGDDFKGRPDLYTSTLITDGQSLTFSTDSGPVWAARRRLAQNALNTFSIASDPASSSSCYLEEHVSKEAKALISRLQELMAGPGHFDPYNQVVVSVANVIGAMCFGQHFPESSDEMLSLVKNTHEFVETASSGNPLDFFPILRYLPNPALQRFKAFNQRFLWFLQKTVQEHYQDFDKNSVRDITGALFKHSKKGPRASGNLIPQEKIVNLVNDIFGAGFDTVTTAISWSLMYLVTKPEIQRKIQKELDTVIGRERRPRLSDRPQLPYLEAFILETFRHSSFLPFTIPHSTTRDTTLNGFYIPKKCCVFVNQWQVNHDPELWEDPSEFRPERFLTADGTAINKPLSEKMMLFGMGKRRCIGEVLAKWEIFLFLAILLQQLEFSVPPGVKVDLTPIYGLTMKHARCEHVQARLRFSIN
In words: Metabolism by isolated human CYP1A2.
Text: as §1
The assay was carried out in triplicate in 1.5 ml glass vials with a final concentration of 20 μM of petasin, isopetasin, and neopetasin. The incubation was performed in a 37°C warm water bath. S9 fractions were thawed slowly on ice. Four different approaches were pursued by testing: (a) petasin, neopetasin, and isopetasin before (0 min) and after 60 min incubations with S9 fraction; (b) petasin, neopetasin, and isopetasin without S9 fraction after 60 min incubation; (c) vehicle as negative controls; and (d) cofactors of S9 fraction after 60‐min incubation.
A mixture of NADPH regeneration systems A (20‐fold) and B (100‐fold), phosphate buffer, and H2O was added, preincubated at 37°C, and shaken gently for 5 min. Afterwards, the recommended amount between 10 and 40 pmol/ml of enzyme or enzyme mixture was added according to manufacturer's instruction and incubated for further 60 min at 37°C and gently shaken. Afterwards, the reactions were stopped by addition of acetonitrile (400 μl). For the control sample, acetonitrile was added at 0 min incubation. The samples were centrifuged for 3 min at 10,000 × g. The supernatant was transferred to high‐performance liquid chromatography vials and analyzed by ultra‐performance liquid chromatography mass spectrometry (UPLC/MS). The UPLC analysis was performed with an UPLC Acquity H Class from Waters (Waters Corporation, Switzerland) including a quaternary high‐pressure gradient pump, an automatic sample injector, and a column thermostat. […]

A further data set addresses T3, CYP1A2 (rat) (Rattus norvegicus, UniProt P04799).
T3 construct: purchased BD Gentest (Switzerland); host or cells: baculovirus expression system
T3 sequence (P04799 1-513): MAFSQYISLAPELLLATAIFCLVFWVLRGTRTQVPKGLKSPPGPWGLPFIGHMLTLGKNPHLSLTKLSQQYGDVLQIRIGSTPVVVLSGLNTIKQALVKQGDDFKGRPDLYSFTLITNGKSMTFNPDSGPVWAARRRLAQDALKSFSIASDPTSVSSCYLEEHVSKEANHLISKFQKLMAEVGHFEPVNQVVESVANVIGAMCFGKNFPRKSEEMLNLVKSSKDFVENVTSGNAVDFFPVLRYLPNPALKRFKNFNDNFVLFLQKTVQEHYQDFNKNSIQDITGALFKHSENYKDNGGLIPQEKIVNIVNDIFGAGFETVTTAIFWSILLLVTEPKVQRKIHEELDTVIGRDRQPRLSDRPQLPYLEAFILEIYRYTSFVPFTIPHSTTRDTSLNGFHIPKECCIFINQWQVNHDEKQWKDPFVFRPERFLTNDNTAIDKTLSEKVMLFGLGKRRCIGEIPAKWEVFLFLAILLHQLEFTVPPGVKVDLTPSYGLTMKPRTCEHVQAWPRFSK
In words: Metabolism by isolated rat CYP1A2.
Text: as §1, §2, §3

In the case of `C=C(C)[C@H]1C[C@@]2(C)C(=CC1=O)CC[C@@H](OC(=O)/C(C)=C\C)[C@@H]2C` [neopetasin], the “extent of metabolism by CYP3A2 (rat)” value at CYP3A2 (rat) amounted to 46%. Moreover, at CYP1A2 (human), the “extent of metabolism by CYP1A2 (human)” value is on record as less than 1%.

For `C/C=C(/C)C(=O)O[C@@H]1CCC2=CC(=O)C(=C(C)C)C[C@]2(C)[C@H]1C` [isopetasin], at CYP3A2 (rat), the “extent of metabolism by CYP3A2 (rat)” value is 73%. The “extent of metabolism by CYP1A2 (human)” value at CYP1A2 (human) worked out at 21%. Moreover, the “extent of metabolism by CYP1A2 (rat)” value on CYP1A2 (rat) was less than 1%.

On to `C=C(C)[C@@H]1C[C@@]2(C)C(=CC1=O)CC[C@@H](OC(=O)/C(C)=C\C)[C@@H]2C` [petasin], for which, on CYP1A2 (human), the “extent of metabolism by CYP1A2 (human)” value stood at 4%. Further, at CYP1A2 (rat), the “extent of metabolism by CYP1A2 (rat)” value worked out at 43%.
